Like-named read-outs stand apart in the source and are kept apart here.
What was measured:
Type in all cases: cell-based
[1] = Cellular toxicity assay in human PBM cells; conditions: human PBM cells, read-out: Cytotoxicity, CC50 (μM) PBM
Description: (§1) The toxicity of the compounds was assessed in Vero, human PBM, CEM (human lymphoblastoid), MT-2, and HepG2 cells, as described previously (see Schinazi R. F., Sommadossi J.-P., Saalmann V., Cannon D. L., Xie M.-Y., Hart G. C., Smith G. A. & Hahn E. F. Antimicrob. Agents Chemother. 1990, 34, 1061-67). Cycloheximide was included as positive cytotoxic control, and untreated cells exposed to solvent were included as negative controls. The cytotoxicity IC50 was obtained from the concentration-response curve using the median effective method described previously (see Chou T.-C. & Talalay P. Adv. Enzyme Regul. 1984, 22, 27-55; Belen'kii M. S. & Schinazi R. F. Antiviral Res. 1994, 25, 1-11).

[2] = Cellular toxicity assay in HepG2 cells; conditions: human, HepG2 cells; read-out: Cytotoxicity; CC50 (μM) HepG2
Description: as §1

wild type HBV = assay: Anti-HBV assay in AD-38 cell line (HBV in culture supernatant); conditions: for EC50: read-out: Anti-HBV activity EC50; for EC90: read-out: Anti-HBV activity EC90
Description: The anti-HBV activity of the compounds was determined by treating the AD-38 cell line carrying wild type HBV under the control of tetracycline (see Ladner S. K., Otto M. J., Barker C. S., Zaifert K., Wang G. H., Guo J. T., Seeger C. & King R. W. Antimicrob. Agents Chemother. 1997, 41, 1715-20). Removal of tetracycline from the medium [Tet (−)] results in the production of HBV. The levels of HBV in the culture supernatant fluids from cells treated with the compounds were compared with that of the untreated controls. Control cultures with tetracycline [Tet (+)] were also maintained to determine the basal levels of HBV expression. 3TC was included as positive control.
The median effective concentrations (EC50) ranges of several of the compounds described herein against HBV are shown in Table 3: […]

[3] = Hepatitis B virus, AD-38 cell line, Tet (-)

| SMILES | CC50 ([1]; human) [µM] | CC50 [2] [µM] | EC50 (wild type HBV; [3]) [nM] | EC90 (wild type HBV; [3]) [nM] | CC50 [1] [µM] | EC50 (wild type HBV; Hepatitis B virus) [nM] | EC50 (wild type HBV; AD-38 cell line, Tet (-)) [nM] |
| --- | --- | --- | --- | --- | --- | --- | --- |
| Cc1c(C(=O)C(=O)NCc2cn(CCOCCOCC(COCCOCCN=[N+]=[N-])(COCCOCCN=[N+]=[N-])COCCOCCn3cc(CNC(=O)C(=O)c4c(C)c(C(=O)Nc5ccc(F)c(F)c5)n(C)c4C)nn3)nn2)c(C)n(C)c1C(=O)Nc1ccc(F)c(F)c1 [Compound 108, 4,4′-(2,2′-((((8,8-bis((2-(2-azidoethoxy)ethoxy)methyl)-3,6,10,13-tetraoxapentadecane-1,15-diyl)bis(1H-1,2,3-triazole-1,4-diyl))bis(methylene))bis(azanediyl))bis(2-oxoacetyl))bis(N-(3,4-difluorophenyl)-1,3,5-trimethyl-1H-pyrrole-2-carboxamide)] | > 100 | > 100 | 10 to 100 | 100 to 1000 | – | – | – |
| Cc1c(C(=O)C(=O)NCc2cn(CCOCCOCC(COCCOCCn3cc(CNC(=O)C(=O)c4c(C)c(C(=O)Nc5ccc(F)c(F)c5)n(C)c4C)nn3)(COCCOCCn3cc(CNC(=O)C(=O)c4c(C)c(C(=O)Nc5ccc(F)c(F)c5)n(C)c4C)nn3)COCCOCCn3cc(CNC(=O)C(=O)c4c(C)c(C(=O)Nc5ccc(F)c(F)c5)n(C)c4C)nn3)nn2)c(C)n(C)c1C(=O)Nc1ccc(F)c(F)c1 [Compound 110] | > 100 | > 100 | 100 to 1000 | 1000 to 10000 | – | – | – |
| Cc1c(C(=O)C(=O)NCc2cn(CCOCCOCCn3cc(CNC(=O)C(=O)c4c(C)c(C(=O)Nc5ccc(F)c(F)c5)n(C)c4C)nn3)nn2)c(C)n(C)c1C(=O)Nc1ccc(F)c(F)c1 [Compound 89, 4,4′-(2,2′-(((((Ethane-1,2-diylbis(oxy))bis(ethane-2,1-diyl))bis(1H-1,2,3-triazole-1,4-diyl))bis (methylene))bis(azanediyl))bis(2-oxoacetyl))bis(N-(3,4-difluorophenyl)-1,3,5-trimethyl-1H-pyrrole-2-carboxamide)] | 68 | > 100 | 1000 to 10000 | – | – | – | – |
| CCOP(=O)(Cn1cc(CNC(=O)C(=O)c2c(C)c(C(=O)Nc3ccc(F)c(F)c3)n(C)c2C)nn1)OCC [Compound 68, Diethyl((4-((2-(5-((3,4-difluorophenyl)carbamoyl)-1,2,4-trimethyl-1H-pyrrol-3-yl)-2-oxoacetamido)methyl)-1H-1,2,3-triazol-1-yl)methyl) phosphonate] | – | > 100 | – | – | 70 | 100 to 1000 | – |
| Cc1c(C(=O)C(=O)NCc2cn(CCOCCn3cc(CNC(=O)C(=O)c4c(C)c(C(=O)Nc5ccc(F)c(F)c5)n(C)c4C)nn3)nn2)c(C)n(C)c1C(=O)Nc1ccc(F)c(F)c1 [Compound 85, 4,4′-(2,2′-((((oxybis(ethane-2,1-diyl))bis(1H-1,2,3-triazole-1,4-diyl))bis(methylene))bis(azanediyl))bis(2-oxoacetyl))bis(N-(3,4-difluorophenyl)-1,3,5-trimethyl-1H-pyrrole-2-carboxamide)] | – | – | 1000 to 10000 | – | – | – | – |
| Cc1c(C(=O)C(=O)NCc2cn(CCCCCCn3cc(CNC(=O)C(=O)c4c(C)c(C(=O)Nc5ccc(F)c(F)c5)n(C)c4C)nn3)nn2)c(C)n(C)c1C(=O)Nc1ccc(F)c(F)c1 [Compound 71, 4,4′-(2,2′-(((Hexane-1,6-diylbis(1H-1,2,3-triazole-1,4-diyl))bis(methylene))bis(azanediyl))bis(2-oxoacetyl))bis(N-(3,4-difluorophenyl)-1,3,5-trimethyl-1H-pyrrole-2-carboxamide)] | > 100 | > 100 | 100 to 1000 | 1000 to 10000 | – | – | – |
| C#CCn1c(C)c(C(=O)C(=O)NC(C)(C)C#C)c(C)c1C(=O)Nc1ccc(F)c(F)c1 [Compound 120, N-(3,4-Difluorophenyl)-3,5-dimethyl-4-(2-((2-methylbut-3-yn-2-yl)amino)-2-oxoacetyl)-1-(prop-2-yn-1-yl)-1H-pyrrole-2-carboxamide] | > 100 | > 100 | 0.01 to 0.1 | 1 to 10 | – | – | – |
| Cc1c(C(=O)C(=O)NCc2cn(CCOCCOCCOCCn3cc(CNC(=O)C(=O)c4c(C)c(C(=O)Nc5ccc(F)c(F)c5)n(C)c4C)nn3)nn2)c(C)n(C)c1C(=O)Nc1ccc(F)c(F)c1 [Compound 94, 4,4′-(2,2′-((((((oxybis(ethane-2,1-diyl))bis(oxy))bis(ethane-2,1-diyl))bis(1H-1,2,3-triazole-1,4-diyl))bis(methylene))bis(azanediyl))bis(2-oxoacetyl))bis(N-(3,4-difluorophenyl)-1,3,5-trimethyl-1H-pyrrole-2-carboxamide)] | > 100 | > 100 | 1 to 10 | – | – | – | – |
| Nc1ccn([C@@H]2CS[C@H](CO)O2)c(=O)n1 [Compound 3TC, lamivudine, reference compound] | – | – | 100 to 1000 | 1000 to 10000 | – | – | – |
| Cc1c(C(=O)C(=O)NCc2cn(CCOCCOCC(COCCOCCN=[N+]=[N-])(COCCOCCn3cc(CNC(=O)C(=O)c4c(C)c(C(=O)Nc5ccc(F)c(F)c5)n(C)c4C)nn3)COCCOCCn3cc(CNC(=O)C(=O)c4c(C)c(C(=O)Nc5ccc(F)c(F)c5)n(C)c4C)nn3)nn2)c(C)n(C)c1C(=O)Nc1ccc(F)c(F)c1 [Compound 109] | > 100 | > 100 | 100 to 1000 | 1000 to 10000 | – | – | – |
| C#CCNC(=O)C(=O)c1c(C)c(C(=O)Nc2ccc(F)c(F)c2)n(CC#CC)c1C [Compound 119, 1-(But-2-yn-1-yl)-N-(3,4-difluorophenyl)-3,5-dimethyl-4-(2-oxo-2-(prop-2-yn-1-ylamino)acetyl)-1H-pyrrole-2-carboxamide] | > 100 | > 100 | – | – | – | 10 to 100 | – |
| Cc1c(C(=O)C(=O)NCc2cn(CCOCCOCC(COCCOCCn3cc(CNC(=O)C(=O)c4c(C)c(C(=O)Nc5ccc(F)c(F)c5)n(C)c4C)nn3)COCCOCCn3cc(CNC(=O)C(=O)c4c(C)c(C(=O)Nc5ccc(F)c(F)c5)n(C)c4C)nn3)nn2)c(C)n(C)c1C(=O)Nc1ccc(F)c(F)c1 [Compound 122] | – | – | 100 to 1000 | – | – | – | – |
| Cc1c(C(=O)C(=O)NCc2cn(CCCCCCCCCCn3cc(CNC(=O)C(=O)c4c(C)c(C(=O)Nc5ccc(F)c(F)c5)n(C)c4C)nn3)nn2)c(C)n(C)c1C(=O)Nc1ccc(F)c(F)c1 [Compound 77, 4,4′-(2,2′-(((decane-1,10-diylbis(1H-1,2,3-triazole-1,4-diyl))bis(methylene))bis(azanediyl))bis (2-oxoacetyl))bis(N-(3,4-difluorophenyl)-1,3,5-trimethyl-1H-pyrrole-2-carboxamide)] | > 100 | > 100 | 1 to 10 | 100 to 1000 | – | – | – |
| Cc1c(C(=O)C(=O)NCc2cn(CCOCCOCCOCCOCCOCCn3cc(CNC(=O)C(=O)c4c(C)c(C(=O)Nc5ccc(F)c(F)c5)n(C)c4C)nn3)nn2)c(C)n(C)c1C(=O)Nc1ccc(F)c(F)c1 [Compound 95, 4,4′-(2,2′-((((3,6,9,12,15-Pentaoxaheptadecane-1,17-diyl)bis(1H-1,2,3-triazole-1,4-diyl))bis (methylene))bis(azanediyl))bis(2-oxoacetyl))bis(N-(3,4-difluorophenyl)-1,3,5-trimethyl-1H-pyrrole-2-carboxamide)] | – | – | – | – | – | – | 10 to 100 |
| Cc1c(C(=O)C(=O)NCc2cn(CCCCCCCCn3cc(CNC(=O)C(=O)c4c(C)c(C(=O)Nc5ccc(F)c(F)c5)n(C)c4C)nn3)nn2)c(C)n(C)c1C(=O)Nc1ccc(F)c(F)c1 [Compound 74, 4,4′-(2,2′-(((Octane-1,8-diylbis(1H-1,2,3-triazole-1,4-diyl))bis(methylene))bis(azanediyl))bis(2-oxoacetyl))bis(N-(3,4-difluorophenyl)-1,3,5-trimethyl-1H-pyrrole-2-carboxamide)] | > 100 | > 100 | 0.1 to 1 | 1 to 10 | – | – | – |
